Experimental data from US6808721B2, “Methods for coating pharmaceutical core tablets” (Boehringer Ingelheim Pharmaceuticals, Inc., priority 2001, dated 2004).
Converted amounts (≈) assume the structure as drawn.

What was measured:
pKa of the drug = type: physicochemical
Experimental: (§1) At least seven polymorphs of BIRB 796 have been isolated (the melt point of the drug is about 152° C. and the pKa about 6.1). The polymorphs generally exist in the form of elongated needles. BIRB 796 is relatively poorly soluble in physiological environments. The solubility of polymorphic BIRB 796 drug substance (Form IV) has been determined to be about 0.5 ug/ml at pH 7.4 and about 10 mg/ml at pH 2.0.

[1] = Solubility of BIRB 796 drug substance; type: physicochemical; conditions: for solubility: polymorphic drug substance (Form IV)
Experimental: as §1

[2] = Discoloration on exposure to light or heat; type: physicochemical; conditions: in the presence of light
Text: It has been discovered that BIRB 796 may lead to discoloration of a core tablet in which it is contained when that core tablet is exposed to light or heat. […] Tablet coatings preferably comprise 2-3%, more preferably about 2.5%, by weight of the BIRB 796 tablet. Masking of the color change may also be used to create a pharmaceutically acceptable dosage form, as for example, mixing dry colorants (including yellow no. 10 iron oxide lake) into the formulation.

[3] = tested on: proinflammatory cytokines, such as tumor necrosis factor (TNF) and interleukin-1 (IL-1); conditions: disclosed in PCT/US99/29165 and U.S. Pat. No. 6,319,921; cited from earlier work

- pKa (pKa of the drug): ~6.1
- solubility ([1]; aqueous buffer, pH 7.4): ~0.5 µg/mL (≈ 0.000948 mM)
- aqueous solubility ([1]; in words): poor aqueous solubility
- solubility ([1]; simulated gastric fluid, pH 2.0): ~10000 µg/mL (≈ 19 mM)
Structure (SMILES): Cc1ccc(-n2nc(C(C)(C)C)cc2NC(=O)Nc2ccc(OCCN3CCOCC3)c3ccccc23)cc1 [BIRB 796, 1-(5-tert-butyl-2-p-tolyl-2H-pyrazol-3-yl)-3-[4-(2-morpholin-4-yl-ethoxy)-naphthalen-1-yl]-urea]
- discoloration [2]: tendency to discolor in the presence of light
- inhibitory activity with respect to proinflammatory cytokines [3]: unexpectedly significant inhibitory activity
